In PMC5159281 (Bioorganic & medicinal chemistry letters, 2016):

Legend:
[1] = tested on: P. falciparum blood stage; conditions: result in words
[2] = tested on: HepG2 cells; test: cells; conditions: Homo sapiens, HepG2, read-out: HepG2 EC50
[3] = tested on: CRL-8155 cells; test: cells; conditions: Homo sapiens, CRL8155, read-out: CRL8155 EC50
[4] = molecular target: recombinant PfPKG (Plasmodium falciparum, UniProt Q8I719); test: biochemical
[5] = molecular target: PfCDPK1 (Plasmodium falciparum, UniProt P62344); test: biochemical
[6] = molecular target: recombinant PfCDPK4 (Plasmodium falciparum, UniProt Q8IBS5); test: biochemical
[7] = cited from earlier work
[8] = molecular target: hERG (Homo sapiens, UniProt Q12809); conditions: cited from earlier work
hERG, sequence (Q12809 whole entry): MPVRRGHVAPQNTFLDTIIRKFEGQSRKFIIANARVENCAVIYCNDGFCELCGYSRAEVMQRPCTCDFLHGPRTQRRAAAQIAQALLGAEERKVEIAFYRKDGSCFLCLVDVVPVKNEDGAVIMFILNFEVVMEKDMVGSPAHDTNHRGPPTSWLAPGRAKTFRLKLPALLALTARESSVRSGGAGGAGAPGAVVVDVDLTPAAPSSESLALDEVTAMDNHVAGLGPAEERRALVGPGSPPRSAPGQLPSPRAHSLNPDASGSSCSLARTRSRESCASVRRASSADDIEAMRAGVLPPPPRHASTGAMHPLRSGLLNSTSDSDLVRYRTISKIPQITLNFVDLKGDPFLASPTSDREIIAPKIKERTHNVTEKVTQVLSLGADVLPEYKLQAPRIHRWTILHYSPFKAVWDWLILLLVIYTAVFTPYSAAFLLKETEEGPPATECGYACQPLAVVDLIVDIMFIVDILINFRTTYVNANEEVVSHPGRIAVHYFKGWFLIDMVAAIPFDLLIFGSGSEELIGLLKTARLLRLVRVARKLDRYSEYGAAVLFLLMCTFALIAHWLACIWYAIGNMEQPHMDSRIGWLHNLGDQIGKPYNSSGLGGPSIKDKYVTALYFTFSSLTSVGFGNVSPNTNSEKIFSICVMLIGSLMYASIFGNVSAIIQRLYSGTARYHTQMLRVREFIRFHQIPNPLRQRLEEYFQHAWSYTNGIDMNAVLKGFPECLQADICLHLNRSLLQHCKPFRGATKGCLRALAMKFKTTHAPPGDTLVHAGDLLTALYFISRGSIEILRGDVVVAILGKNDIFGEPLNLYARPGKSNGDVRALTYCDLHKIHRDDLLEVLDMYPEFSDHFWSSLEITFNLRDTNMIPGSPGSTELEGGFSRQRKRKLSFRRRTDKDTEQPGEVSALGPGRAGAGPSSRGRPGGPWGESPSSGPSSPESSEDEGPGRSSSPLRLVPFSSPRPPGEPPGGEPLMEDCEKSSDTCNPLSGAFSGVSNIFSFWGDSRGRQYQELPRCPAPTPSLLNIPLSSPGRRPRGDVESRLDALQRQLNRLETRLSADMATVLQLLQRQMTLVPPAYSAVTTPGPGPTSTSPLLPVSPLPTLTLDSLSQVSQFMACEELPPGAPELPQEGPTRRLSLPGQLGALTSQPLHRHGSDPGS

PfCDPK1, sequence (P62344 whole entry): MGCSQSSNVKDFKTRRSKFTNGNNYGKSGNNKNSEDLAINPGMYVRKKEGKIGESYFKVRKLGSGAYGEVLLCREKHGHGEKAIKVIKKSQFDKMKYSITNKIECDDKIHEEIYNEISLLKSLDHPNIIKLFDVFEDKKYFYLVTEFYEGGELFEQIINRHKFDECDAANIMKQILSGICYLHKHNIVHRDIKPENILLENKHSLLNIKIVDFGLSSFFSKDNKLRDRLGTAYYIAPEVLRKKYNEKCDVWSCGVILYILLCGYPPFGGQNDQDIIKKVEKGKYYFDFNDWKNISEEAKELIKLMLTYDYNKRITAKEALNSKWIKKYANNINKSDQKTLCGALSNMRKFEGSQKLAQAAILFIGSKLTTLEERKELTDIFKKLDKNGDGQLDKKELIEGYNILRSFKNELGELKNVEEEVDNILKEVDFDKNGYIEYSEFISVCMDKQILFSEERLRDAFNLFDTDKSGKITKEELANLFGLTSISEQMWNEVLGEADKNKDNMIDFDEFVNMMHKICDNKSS
recombinant PfPKG, sequence (Q8I719 whole entry): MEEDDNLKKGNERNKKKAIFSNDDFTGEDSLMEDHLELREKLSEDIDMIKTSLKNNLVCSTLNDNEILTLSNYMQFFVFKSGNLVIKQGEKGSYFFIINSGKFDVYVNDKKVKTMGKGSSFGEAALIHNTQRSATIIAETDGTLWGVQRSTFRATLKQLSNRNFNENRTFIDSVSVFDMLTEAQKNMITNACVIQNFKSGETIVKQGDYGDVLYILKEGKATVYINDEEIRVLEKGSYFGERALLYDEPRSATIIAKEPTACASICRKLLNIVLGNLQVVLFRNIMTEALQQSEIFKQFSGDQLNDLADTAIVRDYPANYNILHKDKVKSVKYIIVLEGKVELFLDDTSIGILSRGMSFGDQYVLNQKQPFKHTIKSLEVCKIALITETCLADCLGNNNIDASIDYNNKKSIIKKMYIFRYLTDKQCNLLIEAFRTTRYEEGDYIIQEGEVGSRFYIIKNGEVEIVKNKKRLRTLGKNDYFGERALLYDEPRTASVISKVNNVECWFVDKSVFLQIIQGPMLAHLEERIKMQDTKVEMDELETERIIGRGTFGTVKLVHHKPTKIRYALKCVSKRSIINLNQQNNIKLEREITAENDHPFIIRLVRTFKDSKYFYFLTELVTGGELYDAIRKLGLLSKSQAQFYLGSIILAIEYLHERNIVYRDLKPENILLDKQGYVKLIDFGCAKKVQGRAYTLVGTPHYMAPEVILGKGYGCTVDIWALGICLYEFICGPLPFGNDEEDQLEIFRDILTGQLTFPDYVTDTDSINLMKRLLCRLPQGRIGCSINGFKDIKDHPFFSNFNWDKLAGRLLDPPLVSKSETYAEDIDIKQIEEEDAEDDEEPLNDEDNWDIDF
recombinant PfCDPK4, sequence (Q8IBS5 whole entry): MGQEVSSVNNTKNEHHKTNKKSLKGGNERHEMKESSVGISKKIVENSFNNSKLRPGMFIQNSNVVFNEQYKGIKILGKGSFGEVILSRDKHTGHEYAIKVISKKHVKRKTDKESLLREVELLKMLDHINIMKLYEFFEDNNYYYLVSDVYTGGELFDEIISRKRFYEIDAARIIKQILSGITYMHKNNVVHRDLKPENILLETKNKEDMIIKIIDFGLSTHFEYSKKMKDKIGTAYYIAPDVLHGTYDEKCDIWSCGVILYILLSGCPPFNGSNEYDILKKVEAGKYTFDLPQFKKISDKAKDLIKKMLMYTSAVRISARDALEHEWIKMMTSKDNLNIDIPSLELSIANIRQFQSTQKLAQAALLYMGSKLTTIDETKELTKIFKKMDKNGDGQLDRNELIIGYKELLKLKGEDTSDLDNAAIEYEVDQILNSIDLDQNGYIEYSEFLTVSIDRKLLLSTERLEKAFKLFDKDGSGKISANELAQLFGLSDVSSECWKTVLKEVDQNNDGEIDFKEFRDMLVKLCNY

Compound | EC50 [2] | EC50 [3] | IC50 [5] | also measured
CC(C)(C)n1nc(-c2ccc3cc(O)ccc3c2)c(C(N)=O)c1N [Compound 2] | > 30000 nM | > 30000 nM |  | anti-erythrocytic stage inhibition [1]: some observable anti-erythrocytic stage inhibition
COc1ccc2cc(-c3nn(C(C)(C)C)c(N)c3C(N)=O)cnc2c1 [Compound 4] | > 30000 nM | > 30000 nM |  | 
CCOc1ccc2cc(-c3nn(C(C)(C)C)c(N)c3C(N)=O)ccc2c1 [Compound 5] |  |  | 287 nM | IC50 [4]: 2370 nM
CCOc1ccc2cc(-c3nn(C(C)(C)C)c(N)c3C(N)=O)cnc2c1 [Compound 6] | > 30000 nM |  |  | anti-erythrocytic stage inhibition [1]: some observable anti-erythrocytic stage inhibition
CC(C)(C)n1nc(-c2cnc3cc(OC4CC4)ccc3c2)c(C(N)=O)c1N [Compound 8] |  |  | 225 nM | 
CCOc1ccc2cc(-c3nn(C4CCOC4)c(N)c3C(N)=O)ccc2n1 (centres unmarked) [Compound 25] |  |  | 468 nM | IC50 [6]: 103 nM
CC(C)n1nc(-c2ccc3nc(OC4CCC4)ccc3c2)c(C(N)=O)c1N [Compound 27] |  |  | 159 nM | 
CCOc1ccc2cc(-c3nn(CC4CCN(C)CC4)c4ncnc(N)c34)ccc2c1 [Compound 1294] |  |  |  | toxicity ([7]; initial mouse studies): low toxicity; oral availability ([7]; mouse): orally available; hERG inhibitory activity [8]: hERG inhibitory activity at therapeutic concentrations

The next lines start with results.

EC50 [2] | EC50 [3] | Compound | IC50 [5] | also measured
> 30000 nM | > 30000 nM | CCOc1ccc2cc(-c3nn(C(C)C)c(N)c3C(N)=O)cnc2c1 [Compound 14] |  | 
> 30000 nM | > 30000 nM | CCOc1ccc2cc(-c3nn(CC(C)(C)CO)c(N)c3C(N)=O)cnc2c1 [Compound 17] |  | 
> 30000 nM | > 30000 nM | CCOc1ccc2cc(-c3nn(C4CCCCC4)c(N)c3C(N)=O)ccc2n1 [Compound 26] |  | anti-erythrocytic stage inhibition [1]: some observable anti-erythrocytic stage inhibition
